Experimental data reported in ChEMBL document CHEMBL3885861, “Open TG-GATES”.

Species on record: Rattus norvegicus
Test: Open TG-GATES - Regimen: Single
Assay type: toxicity, organism-based, Sprague-Dawley
Set-up: regimen Single, gender Male, age 6 weeks
Conditions: in vivo, po, route gavage; for APTT / Bas / Eos / Fbg / Hb / Ht / Lym / MCH / MCHC / MCV / Mono / Neu / PT / Plat / RBC / Ret / WBC: tissue Blood; for KIDNEY_L / KIDNEY_R / KIDNEY_TOTAL: tissue Kidney; for LIVER: tissue Liver; for A/G / ALP / ALT / AST / BUN / CRE / Ca / Cl / DBIL / GLC / IP / K / LDH / Na / PL / RALB / TBIL / TC / TG / TP / gamma-GTP: tissue Plasma
[1] = 0 mg/kg, 3 h, dose level Control
[2] = 0 mg/kg, 6 h, dose level Control
[3] = 0 mg/kg, 9 h, dose level Control
[4] = 0 mg/kg, 24 h, dose level Control

## CN(C)CCC(c1ccc(Cl)cc1)c1ccccn1 (centres undefined) [CHLORPHENIRAMINE]
[1]
  TERMINAL_BW: 198.4 g
  APTT: 18.8 s
  Bas: 0.2%
  Eos: 0.8%
  Fbg: 288.8 mg/dL
  Hb: 12.6 g/dL
  Ht: 39.4%
  Lym: 77.4%
  MCH: 20.8 pg
  MCHC: 32.1%
  MCV: 64.9 fL
  Mono: 2.8%
  Neu: 18.2%
  PT: 14.7 s
  Plat: 109.9 x10_4/uL
  RBC: 606.2 x10_4/ul
  Ret: 9.4%
  WBC: 120.9 x10_2/uL
  KIDNEY_L: 0.9 g
  KIDNEY_R: 0.9 g
  KIDNEY_TOTAL: 1.7 g
  LIVER: 9.2 g
  A/G: 0.9
  ALP: 1344.2 IU/L
  ALT: 46 IU/L
  AST: 73.6 IU/L
  BUN: 9.2 mg/dL
  CRE: 0.2 mg/dL
  Ca: 10.5 mg/dL
  Cl: 107.2 meq/L
  DBIL: 0.008 mg/dL
  GLC: 179 mg/dL
  IP: 9.7 mg/dL
  K: 4.3 meq/L
  LDH: 215.8 IU/L
  Na: 142.8 meq/L
  PL: 137.2 mg/dL
  RALB: 2.5 g/dL
  TBIL: 0.054 mg/dL
  TC: 79.8 mg/dL
  TG: 46.6 mg/dL
  TP: 5.3 g/dL
  gamma-GTP: 1.4 IU/L
[2]
  TERMINAL_BW: 196.5 g
  APTT: 17.5 s
  Bas: 0%
  Eos: 0.6%
  Fbg: 303.6 mg/dL
  Hb: 12.8 g/dL
  Ht: 40.3%
  Lym: 76.8%
  MCH: 20.7 pg
  MCHC: 31.8%
  MCV: 65.1 fL
  Mono: 3.2%
  Neu: 18.8%
  PT: 14.8 s
  Plat: 117.5 x10_4/uL
  RBC: 618.2 x10_4/ul
  Ret: 9.5%
  WBC: 82.5 x10_2/uL
  KIDNEY_L: 0.9 g
  KIDNEY_R: 0.9 g
  KIDNEY_TOTAL: 1.7 g
  LIVER: 8.7 g
  A/G: 0.9
  ALP: 1456.6 IU/L
  ALT: 44.8 IU/L
  AST: 76.2 IU/L
  BUN: 10.2 mg/dL
  CRE: 0.2 mg/dL
  Ca: 10.8 mg/dL
  Cl: 106.6 meq/L
  DBIL: 0.008 mg/dL
  GLC: 190.6 mg/dL
  IP: 10.7 mg/dL
  K: 4.2 meq/L
  LDH: 140.2 IU/L
  Na: 143 meq/L
  PL: 135.2 mg/dL
  RALB: 2.5 g/dL
  TBIL: 0.05 mg/dL
  TC: 81 mg/dL
  TG: 49.2 mg/dL
  TP: 5.4 g/dL
  gamma-GTP: 1.2 IU/L
[3]
  TERMINAL_BW: 193.9 g
  APTT: 19.1 s
  Bas: 0%
  Eos: 0.8%
  Fbg: 294.4 mg/dL
  Hb: 12.7 g/dL
  Ht: 39.4%
  Lym: 75.6%
  MCH: 21.6 pg
  MCHC: 32.2%
  MCV: 67.1 fL
  Mono: 2.8%
  Neu: 19.8%
  PT: 15 s
  Plat: 107.8 x10_4/uL
  RBC: 587.6 x10_4/ul
  Ret: 9.5%
  WBC: 66.4 x10_2/uL
  KIDNEY_L: 0.9 g
  KIDNEY_R: 0.9 g
  KIDNEY_TOTAL: 1.7 g
  LIVER: 7.7 g
  A/G: 0.9
  ALP: 1415.8 IU/L
  ALT: 38.6 IU/L
  AST: 73.8 IU/L
  BUN: 8.2 mg/dL
  CRE: 0.1 mg/dL
  Ca: 10.2 mg/dL
  Cl: 106.6 meq/L
  DBIL: 0.008 mg/dL
  GLC: 161.6 mg/dL
  IP: 10.7 mg/dL
  K: 4 meq/L
  LDH: 116.2 IU/L
  Na: 143.8 meq/L
  PL: 131.6 mg/dL
  RALB: 2.5 g/dL
  TBIL: 0.054 mg/dL
  TC: 76.2 mg/dL
  TG: 39.4 mg/dL
  TP: 5.4 g/dL
  gamma-GTP: 1.2 IU/L
[4]
  TERMINAL_BW: 212.2 g
  APTT: 19.7 s
  Bas: 0%
  Eos: 1%
  Fbg: 292.6 mg/dL
  Hb: 13.3 g/dL
  Ht: 41.2%
  Lym: 80.6%
  MCH: 21.2 pg
  MCHC: 32.2%
  MCV: 66 fL
  Mono: 3.6%
  Neu: 14.2%
  PT: 14.7 s
  Plat: 116.5 x10_4/uL
  RBC: 624.8 x10_4/ul
  Ret: 8.4%
  WBC: 75.5 x10_2/uL
  KIDNEY_L: 0.9 g
  KIDNEY_R: 0.9 g
  KIDNEY_TOTAL: 1.8 g
  LIVER: 10 g
  A/G: 0.8
  ALP: 1528.4 IU/L
  ALT: 46 IU/L
  AST: 70.2 IU/L
  BUN: 14.6 mg/dL
  CRE: 0.2 mg/dL
  Ca: 11 mg/dL
  Cl: 106.4 meq/L
  DBIL: 0.012 mg/dL
  GLC: 190.6 mg/dL
  IP: 8.8 mg/dL
  K: 4.3 meq/L
  LDH: 94.4 IU/L
  Na: 143 meq/L
  PL: 156.8 mg/dL
  RALB: 2.7 g/dL
  TBIL: 0.04 mg/dL
  TC: 85 mg/dL
  TG: 86 mg/dL
  TP: 5.8 g/dL
  gamma-GTP: 1.4 IU/L
3 mg/kg, 3 h, dose level Low
  TERMINAL_BW: 195.7 g
  APTT: 18 s
  Bas: 0%
  Eos: 0.6%
  Fbg: 281.4 mg/dL
  Hb: 13.4 g/dL
  Ht: 41.7%
  Lym: 72.6%
  MCH: 20.9 pg
  MCHC: 32.2%
  MCV: 64.9 fL
  Mono: 3.4%
  Neu: 22.4%
  PT: 15 s
  Plat: 124.5 x10_4/uL
  RBC: 642.6 x10_4/ul
  Ret: 8.9%
  WBC: 84.7 x10_2/uL
  KIDNEY_L: 0.9 g
  KIDNEY_R: 0.8 g
  KIDNEY_TOTAL: 1.7 g
  LIVER: 8.5 g
  A/G: 0.9
  ALP: 1618.2 IU/L
  ALT: 47 IU/L
  AST: 76 IU/L
  BUN: 9.2 mg/dL
  CRE: 0.2 mg/dL
  Ca: 10.9 mg/dL
  Cl: 106 meq/L
  DBIL: 0.01 mg/dL
  GLC: 179.8 mg/dL
  IP: 10.4 mg/dL
  K: 4.1 meq/L
  LDH: 195 IU/L
  Na: 143.6 meq/L
  PL: 140.2 mg/dL
  RALB: 2.5 g/dL
  TBIL: 0.048 mg/dL
  TC: 77.8 mg/dL
  TG: 53.4 mg/dL
  TP: 5.5 g/dL
  gamma-GTP: 2 IU/L
3 mg/kg, 6 h, dose level Low
  TERMINAL_BW: 194.4 g
  APTT: 20 s
  Bas: 0.4%
  Eos: 1%
  Fbg: 296.2 mg/dL
  Hb: 13.2 g/dL
  Ht: 41.3%
  Lym: 75.8%
  MCH: 20.8 pg
  MCHC: 31.9%
  MCV: 65.1 fL
  Mono: 3.4%
  Neu: 19.2%
  PT: 14.9 s
  Plat: 119.3 x10_4/uL
  RBC: 633.8 x10_4/ul
  Ret: 9.5%
  WBC: 83.2 x10_2/uL
  KIDNEY_L: 0.9 g
  KIDNEY_R: 0.9 g
  KIDNEY_TOTAL: 1.8 g
  LIVER: 8.1 g
  A/G: 0.9
  ALP: 1343.4 IU/L
  ALT: 41.4 IU/L
  AST: 71.2 IU/L
  BUN: 7.8 mg/dL
  CRE: 0.2 mg/dL
  Ca: 10.5 mg/dL
  Cl: 108.4 meq/L
  DBIL: 0.004 mg/dL
  GLC: 176 mg/dL
  IP: 10.4 mg/dL
  K: 4.1 meq/L
  LDH: 200 IU/L
  Na: 144.4 meq/L
  PL: 150.2 mg/dL
  RALB: 2.5 g/dL
  TBIL: 0.052 mg/dL
  TC: 89.6 mg/dL
  TG: 42.6 mg/dL
  TP: 5.4 g/dL
  gamma-GTP: 1.4 IU/L
3 mg/kg, 9 h, dose level Low
  TERMINAL_BW: 194.2 g
  APTT: 17.4 s
  Bas: 0%
  Eos: 1%
  Fbg: 288.2 mg/dL
  Hb: 12.8 g/dL
  Ht: 39.6%
  Lym: 77.8%
  MCH: 20.9 pg
  MCHC: 32.4%
  MCV: 64.7 fL
  Mono: 2.8%
  Neu: 18%
  PT: 14.8 s
  Plat: 119.5 x10_4/uL
  RBC: 612.4 x10_4/ul
  Ret: 9.2%
  WBC: 71.4 x10_2/uL
  KIDNEY_L: 0.9 g
  KIDNEY_R: 0.9 g
  KIDNEY_TOTAL: 1.8 g
  LIVER: 7.7 g
  A/G: 0.9
  ALP: 1240.8 IU/L
  ALT: 40.6 IU/L
  AST: 71 IU/L
  BUN: 8.2 mg/dL
  CRE: 0.1 mg/dL
  Ca: 10.3 mg/dL
  Cl: 105.8 meq/L
  DBIL: 0.006 mg/dL
  GLC: 165.2 mg/dL
  IP: 10.2 mg/dL
  K: 3.9 meq/L
  LDH: 139 IU/L
  Na: 142.8 meq/L
  PL: 143 mg/dL
  RALB: 2.5 g/dL
  TBIL: 0.046 mg/dL
  TC: 85.4 mg/dL
  TG: 37.2 mg/dL
  TP: 5.3 g/dL
  gamma-GTP: 1 IU/L
3 mg/kg, 24 h, dose level Low
  TERMINAL_BW: 214.2 g
  APTT: 15.8 s
  Bas: 0%
  Eos: 1%
  Fbg: 291.4 mg/dL
  Hb: 12.9 g/dL
  Ht: 40.3%
  Lym: 78.2%
  MCH: 20.4 pg
  MCHC: 32.1%
  MCV: 63.5 fL
  Mono: 3%
  Neu: 16.4%
  PT: 14.6 s
  Plat: 123.3 x10_4/uL
  RBC: 634.4 x10_4/ul
  Ret: 7.9%
  WBC: 88.7 x10_2/uL
  KIDNEY_L: 0.9 g
  KIDNEY_R: 0.9 g
  KIDNEY_TOTAL: 1.8 g
  LIVER: 9.9 g
  A/G: 0.9
  ALP: 1572.2 IU/L
  ALT: 47.4 IU/L
  AST: 72.6 IU/L
  BUN: 14.4 mg/dL
  CRE: 0.2 mg/dL
  Ca: 11.2 mg/dL
  Cl: 105.6 meq/L
  DBIL: 0.016 mg/dL
  GLC: 188.6 mg/dL
  IP: 8.9 mg/dL
  K: 4.5 meq/L
  LDH: 131.6 IU/L
  Na: 142.8 meq/L
  PL: 150.4 mg/dL
  RALB: 2.6 g/dL
  TBIL: 0.05 mg/dL
  TC: 81.6 mg/dL
  TG: 80.8 mg/dL
  TP: 5.7 g/dL
  gamma-GTP: 1 IU/L
